The data set is described as follows: Solubility study of adapalene with randomly methylated β-cyclodextrins. Format: physicochemical. On the procedure:
A solubility study was performed by adding excess amounts of adapalene (5 mg) to six glass vials containing 10 mL aqueous solutions of increasing concentrations of randomly methylated β-cyclodextrins (0-7×10^−3 M) dissolved in 154 mM NaCl and 10 mM Na-phosphate (pH 7). The samples were mixed at room temperature for six days, and then they were centrifuged at 4000 rpm for 3 minutes. The supernatants were filtered through a 0.2 μm filter in order to remove undissolved adapalene. The UV absorbance of the filtrates was then measured at 320 nm in order to determine the concentration of dissolved adapalene. The concentration of adapalene in each sample was calculated from a calibration curve.
For sample 1, from the solubility diagram study in Example 16 containing 0.7 mM randomly methylated β-cyclodextrin and an excess of adapalene, 550 μl of the filtered sample, was added to a 2 ml Eppendorf tube. The sample was then lyophilized and the solvent exchanged to D2O.
Sample 2 containing 1.5 mM randomly methylated β-cyclodextrin and 0.15 mM of adapalene dissolved in D2O and 1% DMSO-d6 was prepared by adding 550 μl of the sample to a 2 ml Eppendorf tube. The sample was then lyophilized and the solvent exchanged again to D2O.

SMILES strings stand for the structures.

Turning to `COc1ccc(-c2ccc3cc(C(=O)O)ccc3c2)cc1C12CC3CC(CC(C3)C1)C2` [adapalene, 6-[3-(1-adamantyl)-4-methoxy-phenyl] naphthalene-2-carboxylic acid], the Solubility of adapalene result (randomly methylated β-cyclodextrins 0-7×10^−3 M, 154 mM NaCl, 10 mM Na-phosphate pH 7, room temperature, six days (FIG. 3)) was “increases with increasing CD concentration”. The Complexed adapalene entry is listed as “about 0.075 mM” (sample 1: 0.7 mM randomly methylated β-cyclodextrin, excess adapalene, filtered, according to solubility diagram data); “about 0.15 mM” (sample 2: 1.5 mM randomly methylated β-cyclodextrin and 0.15 mM adapalene in D2O and 1% DMSO-d6).

These data come from patent publication US10988600B2, “Cyclodextrin-grafted cross-linked hyaluronic acid complexed with active drug substances and uses thereof” (GALDERMA S.A., priority 2016, dated 2021).
